Measurements published in ChEMBL document CHEMBL3813672, “Discovery of anti-cancer activity for benzo[1,2,4]triazin-7-ones: Very strong correlation to pleurotin and thioredoxin reductase inhibition” (Bioorg Med Chem, 2016).

Experiments:
[1] = Growth inhibition of human SKOV3 cells incubated for 48 hrs by sulforhodamine B assay; assay type: functional; settings: SK-OV-3, 48 h
[2] = Growth inhibition of human IGROV1 cells incubated for 48 hrs by sulforhodamine B assay; assay type: functional; settings: IGROV-1, 48 h
[3] = Growth inhibition of human OVCAR4 cells incubated for 48 hrs by sulforhodamine B assay; assay type: functional; settings: OVCAR-4, 48 h
[4] = Growth inhibition of human LOXIMVI cells incubated for 48 hrs by sulforhodamine B assay; assay type: functional; settings: LOX IMVI
NCI/ADR-RES = assay: Growth inhibition of human NCI/ADR-RES cells incubated for 48 hrs by sulforhodamine B assay; assay type: functional
[5] = Growth inhibition of human SNB75 cells incubated for 48 hrs by sulforhodamine B assay; assay type: functional; settings: SNB-75, 48 h
[6] = Growth inhibition of human HL-60(TB) cells incubated for 48 hrs by sulforhodamine B assay; assay type: functional; settings: HL-60, 48 h
K562 = assay: Growth inhibition of human K562 cells incubated for 48 hrs by sulforhodamine B assay; assay type: functional; settings: K562, 48 h
[7] = Growth inhibition of human HCT116 cells incubated for 48 hrs by sulforhodamine B assay; assay type: functional; settings: HCT-116, 48 h
ACHN = assay: Growth inhibition of human ACHN cells incubated for 48 hrs by sulforhodamine B assay; assay type: functional
[8] = Growth inhibition of human SF268 cells incubated for 48 hrs by sulforhodamine B assay; assay type: functional; settings: SF-268, 48 h
NCI-H322M = assay: Growth inhibition of human NCI-H322M cells incubated for 48 hrs by sulforhodamine B assay; assay type: functional
SK-MEL-28 = assay: Growth inhibition of human SK-MEL-28 cells incubated for 48 hrs by sulforhodamine B assay; assay type: functional; settings: SK-MEL-28, 48 h
T47D = assay: Growth inhibition of human T47D cells incubated for 48 hrs by sulforhodamine B assay; assay type: functional
A498 = assay: Growth inhibition of human A498 cells incubated for 48 hrs by sulforhodamine B assay; assay type: functional; settings: A498, 48 h
SK-MEL-5 = assay: Growth inhibition of human SK-MEL-5 cells incubated for 48 hrs by sulforhodamine B assay; assay type: functional; settings: SK-MEL-5, 48 h
EKVX = assay: Growth inhibition of human EKVX cells incubated for 48 hrs by sulforhodamine B assay; assay type: functional
[9] = Growth inhibition of human SF295 cells incubated for 48 hrs by sulforhodamine B assay; assay type: functional; settings: SF-295, 48 h
[10] = Growth inhibition of human SW620 cells incubated for 48 hrs by sulforhodamine B assay; assay type: functional; settings: SW-620, 48 h
NCI-H522 = assay: Growth inhibition of human NCI-H522 cells incubated for 48 hrs by sulforhodamine B assay; assay type: functional; settings: NCI-H522, 48 h
MCF7 = assay: Growth inhibition of human MCF7 cells incubated for 48 hrs by sulforhodamine B assay; assay type: functional; settings: MCF7, 48 h
[11] = Growth inhibition of human UACC62 cells incubated for 48 hrs by sulforhodamine B assay; assay type: functional; settings: UACC-62, 48 h
[12] = Growth inhibition of human OVCAR3 cells incubated for 48 hrs by sulforhodamine B assay; assay type: functional; settings: OVCAR-3, 48 h
SN12C = assay: Growth inhibition of human SN12C cells incubated for 48 hrs by sulforhodamine B assay; assay type: functional
[13] = Selectivity ratio of IC50 for human GM00637 cells to IC50 for human MCF7 cells; assay type: ADME, cell-based; settings: GM00637 cells versus MCF7 cells, read-out: Ratio IC50
A549 = assay: Growth inhibition of human A549/ATCC cells incubated for 48 hrs by sulforhodamine B assay; assay type: functional; settings: A549, 48 h
SK-MEL-2 = assay: Growth inhibition of human SK-MEL-2 cells incubated for 48 hrs by sulforhodamine B assay; assay type: functional; settings: SK-MEL-2, 48 h
NCI-H226 = assay: Growth inhibition of human NCI-H226 cells incubated for 48 hrs by sulforhodamine B assay; assay type: functional; settings: NCI-H226, 48 h
NCI-H460 = assay: Growth inhibition of human NCI-H460 cells incubated for 48 hrs by sulforhodamine B assay; assay type: functional; settings: NCI-H460, 48 h
[14] = Growth inhibition of human MOLT4 cells incubated for 48 hrs by sulforhodamine B assay; assay type: functional; settings: MOLT-4, 48 h
[15] = Growth inhibition of human OVCAR5 cells incubated for 48 hrs by sulforhodamine B assay; assay type: functional; settings: OVCAR-5, 48 h
[16] = Growth inhibition of human UO31 cells incubated for 48 hrs by sulforhodamine B assay; assay type: functional; settings: UO-31, 48 h
[17] = Mixed-type inhibition of rat liver thioredoxin reductase using DTNB as substrate measured for 50 mins at 5 mins intervals in presence of NADPH by Lineweaver-Burk plot analysis
[18] = read-out: pLC50 (the source's name) (converted)

O=c1ccc2nc(C(F)(F)F)nn(-c3ccccc3)c-2c1
GI50 [1]: 15.1 µM
CC50 [1, 18]: > 100 µM
TGI ([1]; read-out: pTGI): > 100 µM
GI50 [2]: 12 µM
CC50 [2, 18]: 55 µM
TGI ([2]; read-out: pTGI (converted)): 25.7 µM
GI50 [3]: 1.48 µM
CC50 [3, 18]: 5.37 µM
TGI ([3]; read-out: pTGI (converted)): 2.82 µM
GI50 [4]: 1.58 µM
CC50 [4, 18]: 6.61 µM
TGI ([4]; read-out: pTGI (converted)): 3.24 µM
GI50 (NCI/ADR-RES): 53.7 µM
CC50 (NCI/ADR-RES; [18]): > 100 µM
TGI (NCI/ADR-RES; read-out: pTGI (converted)): 64.6 µM
GI50 [5]: 13.2 µM
CC50 [5, 18]: 52.5 µM
TGI ([5]; read-out: pTGI (converted)): 26.3 µM
GI50 [6]: 1.2 µM
CC50 [6, 18]: > 100 µM
TGI ([6]; read-out: pTGI (converted)): 4.27 µM
GI50 (K562): 2.09 µM
CC50 (K562; [18]): > 100 µM
GI50 [7]: 1.62 µM
CC50 [7, 18]: 6.17 µM
TGI ([7]; read-out: pTGI (converted)): 3.16 µM
GI50 (ACHN): 1.17 µM
CC50 (ACHN; [18]): 5.13 µM
TGI (ACHN; read-out: pTGI (converted)): 2.45 µM
GI50 [8]: 15.1 µM
CC50 [8, 18]: 56.2 µM
TGI ([8]; read-out: pTGI (converted)): 28.8 µM
GI50 (NCI-H322M): 18.6 µM
CC50 (NCI-H322M; [18]): 61.7 µM
TGI (NCI-H322M; read-out: pTGI (converted)): 33.9 µM
GI50 (SK-MEL-28): 1.7 µM
CC50 (SK-MEL-28; [18]): 6.31 µM
TGI (SK-MEL-28; read-out: pTGI (converted)): 3.24 µM
GI50 (T47D): 1.7 µM
CC50 (T47D; [18]): > 100 µM
TGI (T47D; read-out: pTGI (converted)): 6.61 µM
GI50 (A498): 14.1 µM
CC50 (A498; [18]): 52.5 µM
TGI (A498; read-out: pTGI (converted)): 26.9 µM
GI50 (SK-MEL-5): 7.76 µM
CC50 (SK-MEL-5; [18]): 47.9 µM
TGI (SK-MEL-5; read-out: pTGI (converted)): 20.9 µM
GI50 (EKVX): 26.9 µM
CC50 (EKVX; [18]): 53.7 µM
TGI (EKVX; read-out: pTGI (converted)): 26.9 µM
GI50 [9]: 22.9 µM
CC50 [9, 18]: > 100 µM
TGI ([9]; read-out: pTGI (converted)): 67.6 µM
GI50 [10]: 1.74 µM
CC50 [10, 18]: 7.94 µM
TGI ([10]; read-out: pTGI (converted)): 3.72 µM
GI50 (NCI-H522): 1.51 µM
CC50 (NCI-H522; [18]): 6.03 µM
TGI (NCI-H522; read-out: pTGI (converted)): 3.02 µM
GI50 (MCF7): 0.49 µM
CC50 (MCF7; [18]): > 100 µM
TGI (MCF7; read-out: pTGI (converted)): 4.07 µM
GI50 [11]: 5.13 µM
CC50 [11, 18]: 43.7 µM
TGI ([11]; read-out: pTGI (converted)): 17.8 µM
GI50 [12]: 1.58 µM
CC50 [12, 18]: 5.5 µM
TGI ([12]; read-out: pTGI (converted)): 2.95 µM
GI50 (SN12C): 7.24 µM
CC50 (SN12C; [18]): > 100 µM
TGI (SN12C; read-out: pTGI (converted)): 57.5 µM
selectivity ratio [13]: 3
GI50 (A549): 19.5 µM
CC50 (A549; [18]): 79.4 µM
TGI (A549; read-out: pTGI (converted)): 38.9 µM
GI50 (SK-MEL-2): 3.63 µM
CC50 (SK-MEL-2; [18]): 58.9 µM
TGI (SK-MEL-2; read-out: pTGI (converted)): 15.5 µM
GI50 (NCI-H226): 13.2 µM
CC50 (NCI-H226; [18]): 70.8 µM
TGI (NCI-H226; read-out: pTGI (converted)): 30.2 µM
GI50 (NCI-H460): 17.8 µM
CC50 (NCI-H460; [18]): 74.1 µM
TGI (NCI-H460; read-out: pTGI (converted)): 36.3 µM
GI50 [14]: 2.14 µM
CC50 [14, 18]: > 100 µM
TGI ([14]; read-out: pTGI (converted)): 9.12 µM
GI50 [15]: 15.5 µM
CC50 [15, 18]: 55 µM
TGI ([15]; read-out: pTGI (converted)): 28.8 µM
GI50 [16]: 1.48 µM
CC50 [16, 18]: 5.62 µM
TGI ([16]; read-out: pTGI (converted)): 2.88 µM

O=c1ccc2nc(-c3ccccc3)nn(-c3ccccc3)c-2c1
Ki [17]: 3.9 µM
